Series [1] relates to passive cutaneous anaphylaxis (P.C.A.). The experiment in a line: Antagonism to passive cutaneous anaphylaxis (P.C.A.) in rat sensitized with homologous reaginic antiserum. The series is classed as in vivo. Particulars: test compound given orally 2 hours and intravenously 5 minutes before antigen. As for the experimental part:
(a) Rat reaginic antiserum against egg albumin
One mg of egg albumin emulsified in 0.5 ml of B. pertussisdiphtheria mixed vaccine (Tanabe Seiyaku Company Ltd.) and 0.5 ml of Freund's incomplete adjuvant (Difco) was used as the antigen. The emulsion was given subcutaneously in a single dose of 1 ml divided equally (0.25 ml) to the four foot pads of male Sprague-Dawley JCL strain rats aged 6 weeks, each weighing 170-220 g. Blood samples were collected from the femoral artery 12 days after injection, and centrifuged at 3000 r.p.m. at 4° C. for 15 minutes. The antisera thus obtained were stored at -20° C.
(2) Antagonism to passive cutaneous anaphylaxis (P.C.A.) in rat sensitized with homologous reaginic antiserum
Ten male Sprague-Dawley-JCL strain rats, weighing 290-310 g were used for each dose. The rat reaginic antiserum against egg albumin was used at a dilution 1:4. The animals were sensitized with 0.1 ml of the antiserum injected intracutaneously on the depilated backs of the rats. […] It was further centrifuged at 2000 r.p.m. for 15 minutes and the quantity of the dye in the supernatant solution was determined by colorimetry at 620 mμ. […] The inhibitory effect of test compound was determined from the dye amounts measured in comparison with the control group and the treated group and the ED50 value was calculated according to Litchfield-Wilcoxon method.

Another series in a line: Acute toxicity in mouse. Particulars: in vivo, po; female mouse, orally, seven days. On the procedure: (§1) (6) Acute toxicity in mouse and rat
(§2) Each ten male and female ICR-JCL strain mice and Sprague-Dawley-JCL strain rats were used for each dose.
(§3) Test compound was given to animals in a form of suspension in 0.5% methyl cellose orally. After administration, the incidence of the death was recorded for successive seven days. LD50 values were calculated by the method of Lichfield-Wilcoxon method.

Another series in a line: Acute toxicity in rat. The note with it: in vivo, po; female rat, orally, seven days. As for the experimental part:
as §1, §2, §3

In series [2] the test system is anaphylactic bronchoconstriction. The series is described as follows: Anaphylactic bronchoconstriction in guinea-pigs sensitized with homologous antiserum. The series is classed as in vivo. Particulars: Cavia porcellus, iv; guinea-pig; intravenously 30 seconds before antigen. As for the experimental part:
(c) Guinea-pig antiserum against egg albumin
Five mg of egg albumin emulsified in 0.5 ml of physiological saline and 0.5 ml of Freund's incomplete adjuvant was used as the antigen.
The emulsion was given subcutaneously in a single dose of 1 ml divided equally (0.25 ml) to the four foot pads of male Hartly strain guinea pigs, each weighing 250 to 300 g. Starting two weeks after dosing with the aforementioned emulsion 0.1% egg albumin emulsified in physiological saline was given subcutaneously in equally divided (0.1 ml) doses of 0.4 ml once a week for 4 weeks to four sites on the backs of the test animals. Blood samples were collected from the carotid artery one week after the last injection, and centrifuged at 3000 r.p.m. at room temperature for 15 minutes. The antisera thus obtained were stored at -20° C.
(4) Anaphylactic bronchoconstriction in guinea-pigs sensitized with homologous antiserum
Male Hartly strain guinea-pigs were sensitized with an intravenous injection of 1 ml of homologous antiserum against egg albumin. And 48 hours later, the animals were immobilized with an intraperitoneal dose of 100 mg/kg of gallamine. The trachea was cannulated for artificial respiration which was performed with a miniature respiratory pump (3 ml/stroke, 60 strokes/minute). […]

In the next series the test system is P.C.A. reaction. The experiment in a line: Passive cutaneous anaphylaxis (P.C.A.) in rats sensitized with homologous hyperimmune antiserum. The note with it: iv, rat, intravenously 30 seconds before antigen, read-out: ED50 (inhibitory effect of P.C.A. reaction). The class given is in vivo. As for the experimental part:
(b) Rat hyperimmune antiserum against egg albumin
Male Sprague-Dawley JCL strain rats were injected in the four foot pads with 10 mg of egg albumin emulsified in 0.5 ml of saline and 0.5 ml of Freund's complete adjuvant in divided portions. Seven days later, the animals were injected intramuscularly at three sites on a shaved area of their backs with a total of 5 mg of egg albumin emulsified in 0.5 ml of saline and 0.5 ml of Freund's complete adjuvant. On days 28 to 30, the animals were injected intracutaneously at two sites on the back with 0.2 mg of egg albumin in 0.2 ml of saline. The antiserum was obtained 7 days after the last injection and stored at -20° C.
(3) Passive cutaneous anaphylaxis (P.C.A.) in rats sensitized with homologous hyperimmune antiserum
P.C.A. reaction was performed in male Sprague-Dawley JCL strain rats passively sensitized with homologous hyperimmune antiserum against egg albumin. That is, 0.1 ml of the antiserum was injected into the skin on the back of rats, and 4 hours later 1 ml of mixture of egg albumin 5 mg and Evans' blue 5 mg was injected intravenously. One hour later, the animals were killed and the skin was removed. Evans' blue was then extracted from the sensitized spot with 10 ml of 4:1 mixture of aceton and 2% solution of RBS-25. The quantity of Evans' blue was determined by colorimetry at 620 mμ. The drug was given intravenously 30 seconds before dosing with antigen.

In another series the test system is histamine. The series is described as follows: Antagonistic effect on histamine in vitro (isolated guinea-pig ileum). Particulars: histamine 1.0 × 10^-7 g/ml. As for the experimental part: (5) Antagonistic effect on histamine in vitro
The ileum was connected to a strain gauge transducer and the contractions were recorded isometrically.

Structures can show the parent of a compound that is named as a salt.

A word on the ED50: it is the dose that gives a 50% effect, or the effect in half of the subjects. As usually defined, the LD50 is the dose at which mortality reaches 50%. Read a low LD50 as a more toxic substance. `O=C(Cn1c(=O)sc2ccc(Cl)cc21)N1CCNCC1` [Compound A, 3-(1-piperazinyl)carbonylmethyl-5-chloro-2-benzothiazolinone]: the ED50 in series [1] came out at 50 mg/kg; in series [2] it was 56 mg/kg; in the series on P.C.A. reaction, 9 mg/kg. Besides, the 50% lethal dose (LD50) at 168 h in the series “Acute toxicity in mouse” worked out at 219 mg/kg; in the series “Acute toxicity in rat”, 734 mg/kg. Besides, the “Percentage inhibition of histamin” value amounted to 14% in the series on histamine (1.0 × 10^-5 g/ml test compound), 82% with histamine (1.6 × 10^-4 g/ml test compound), 48% in the series on histamine (4.0 × 10^-5 g/ml test compound) and 59% in the series with histamine (8.0 × 10^-5 g/ml test compound).

On to `O=C(Cn1c(=O)sc2ccc(Cl)cc21)N1CCN(CCO)CC1` [Compound B, 3-[4-(2-hydroxyethyl)-1-piperazinylcarbonylmethyl]-5-chloro-2-benzothiazolinone hydrochloride], for which the ED50 in the series with P.C.A. reaction is 28 mg/kg.

Turning to `O=C(Cn1c(=O)sc2ccc(Cl)cc21)N1CCC(O)CC1` [Compound C, 3-(4-hydroxypiperidino)carbonylmethyl-5-chloro-2-benzothiazolinone], the ED50 in the series on P.C.A. reaction is 32 mg/kg.

For the compound `O=C(O)c1cc(=O)c2c(OCC(O)COc3cccc4oc(C(=O)O)cc(=O)c34)cccc2o1` [Compound D, disodium chromoglycate, reference compound], the median effective dose (ED50) in the series with P.C.A. reaction was found to be 105 mg/kg. Besides, the results for the “Percentage inhibition of histamin” value in the series with histamine (1.0 × 10^-5 g/ml test compound), in the series with histamine (1.6 × 10^-4 g/ml test compound) and with histamine (4.0 × 10^-5 g/ml test compound) were 2%, 1% and 4%, respectively.

The values above are taken from patent publication US4279909A, “Antiallergic method” (Fujisawa Pharmaceutical Co., Ltd., priority 1980, dated 1981).
